Experimental data as given in US6852673B2, “Herbicidal pyridine compounds” (BASF Aktiengesellschaft, priority 1998, dated 2005).

Key:
Format in all cases: in vivo
[1] = system: Triticum aestivum (TRZAW); assay: Post-emergence herbicidal evaluation, winter wheat; details: rated 2 to 4 weeks after treatment
How it was run: (§1)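 Emerged seedlings receive a water-diluted acetone formulation at about 0.03 to 0.4 kg per hectare per pot and are grown on in the greenhouse. Scoring after 2–4 weeks uses a 0 (untreated-like growth) to 9 (death) scale.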

[2] = system: Ambrosia artemiisifolia (AMBEL); assay: Post-emergence herbicidal evaluation, ragweed; details: rated 2 to 4 weeks after treatment
How it was run: as §1

Glycine max (GLXMA) [3] = assay: Pre-emergence herbicidal evaluation, soyabeans
How it was run: (§2)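 Soil-surface spray of sown pots, about 0.0125 to 0.4 kg/ha, aqueous acetone carrier. Scored visually on a rating scale 2 to 4 weeks post-treatment.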

Stellaria media (STEME) [4] = assay: Post-emergence herbicidal evaluation, chickweed; details: rated 2 to 4 weeks after treatment
How it was run: as §1

[5] = system: Ipomoea hederacea (IPOHE); assay: Pre-emergence herbicidal evaluation, morning glory
How it was run: as §2

[6] = system: Ambrosia artemiisifolia (AMBEL); assay: Pre-emergence herbicidal evaluation, ragweed
How it was run: as §2

[7] = system: Echinochloa grus galli (ECHCG); assay: Pre-emergence herbicidal evaluation, barnyard grass
How it was run: as §2

[8] = system: Matricaria inodora (MATIN); assay: Post-emergence herbicidal evaluation, mayweed; details: rated 2 to 4 weeks after treatment
How it was run: as §1

[9] = system: Alopecurus myosuroides (ALOMY); assay: Pre-emergence herbicidal evaluation, black grass
How it was run: as §2

Oryza sativum (ORYSA) [10] = assay: Pre-emergence herbicidal evaluation, rice
How it was run: as §2

[11] = system: Triticum aestivum (TRZAW); assay: Pre-emergence herbicidal evaluation, winter wheat
How it was run: as §2

[12] = system: Abutilon theophrasti (ABUTH); assay: Pre-emergence herbicidal evaluation, velvetleaf
How it was run: as §2

Stellaria media (STEME) [13] = assay: Pre-emergence herbicidal evaluation, chickweed
How it was run: as §2

[14] = system: Ipomoea hederacea (IPOHE); assay: Post-emergence herbicidal evaluation, morning glory; details: rated 2 to 4 weeks after treatment
How it was run: as §1

Glycine max (GLXMA) [15] = assay: Post-emergence herbicidal evaluation, soyabeans; details: rated 2 to 4 weeks after treatment
How it was run: as §1

Solanum nigrum (SOLNI) = assay: Post-emergence herbicidal evaluation, black nightshade; details: rated 2 to 4 weeks after treatment
How it was run: as §1

[16] = system: Digitaria sanguinalis (DIGSA); assay: Post-emergence herbicidal evaluation, large crabgrass; details: rated 2 to 4 weeks after treatment
How it was run: as §1

Oryza sativum (ORYSA) [17] = assay: Post-emergence herbicidal evaluation, rice; details: rated 2 to 4 weeks after treatment
How it was run: as §1

Galium aparine (GALAP) = assay: Post-emergence herbicidal evaluation, cleaver; details: rated 2 to 4 weeks after treatment
How it was run: as §1

[18] = system: Alopecurus myosuroides (ALOMY); assay: Post-emergence herbicidal evaluation, black grass; details: rated 2 to 4 weeks after treatment
How it was run: as §1

[19] = system: Abutilon theophrasti (ABUTH); assay: Post-emergence herbicidal evaluation, velvetleaf; details: rated 2 to 4 weeks after treatment
How it was run: as §1

Hordeum vulgare (HORVW) = assay: Post-emergence herbicidal evaluation, winter barley; details: rated 2 to 4 weeks after treatment
How it was run: as §1

Lamium purpureum (LAMPU) [20] = assay: Pre-emergence herbicidal evaluation, purple deadnettle
How it was run: as §2

Zea mays (ZEAMX) = assay: Pre-emergence herbicidal evaluation, maize
How it was run: as §2

Setaria viridis (SETVI) = assay: Pre-emergence herbicidal evaluation, green foxtail
How it was run: as §2

Lamium purpureum (LAMPU) [21] = assay: Post-emergence herbicidal evaluation, purple deadnettle; details: rated 2 to 4 weeks after treatment
How it was run: as §1

Cc1cc(OCC(F)(F)C(F)(F)C(F)(F)C(F)F)nc(Oc2cc(C(F)(F)F)nn2C)c1 [Example 8]
0 (0 - No effect): GLXMA rating (Glycine max (GLXMA) [3]; dose 0.013 kg/ha) | ORYSA rating (Oryza sativum (ORYSA) [10]; dose 0.013 kg/ha) | ORYSA rating (Oryza sativum (ORYSA) [10]; dose 0.025 kg/ha) | TRZAW rating ([11]; dose 0.013 kg/ha) | TRZAW rating ([11]; dose 0.025 kg/ha) | ABUTH rating ([12]; dose 0.013 kg/ha)
7 (7 - Good herbicidal effect): AMBEL rating ([6]; dose 0.025 kg/ha) | ALOMY rating ([9]; dose 0.1 kg/ha) | ABUTH rating ([12]; dose 0.1 kg/ha) | IPOHE rating ([14]; dose 0.03 kg/ha) | GLXMA rating (Glycine max (GLXMA) [15]; dose 0.1 kg/ha) | GALAP rating (Galium aparine (GALAP); dose 0.1 kg/ha) | ALOMY rating ([18]; dose 0.1 kg/ha) | ABUTH rating ([19]; dose 0.4 kg/ha)
good selectivity: selectivity in maize (Zea mays (ZEAMX))
8 (8 - Approaching complete kill): AMBEL rating ([2]; dose 0.1 kg/ha) | AMBEL rating ([2]; dose 0.4 kg/ha) | STEME rating (Stellaria media (STEME) [4]; dose 0.4 kg/ha) | AMBEL rating ([6]; dose 0.1 kg/ha) | AMBEL rating ([6]; dose 0.4 kg/ha) | ECHCG rating ([7]; dose 0.4 kg/ha) | ALOMY rating ([9]; dose 0.4 kg/ha) | GLXMA rating (Glycine max (GLXMA) [15]; dose 0.4 kg/ha) | SOLNI rating (Solanum nigrum (SOLNI); dose 0.4 kg/ha) | DIGSA rating ([16]; dose 0.03 kg/ha) | GALAP rating (Galium aparine (GALAP); dose 0.4 kg/ha) | ALOMY rating ([18]; dose 0.4 kg/ha) | LAMPU rating (Lamium purpureum (LAMPU) [20]; dose 0.013 kg/ha) | LAMPU rating (Lamium purpureum (LAMPU) [20]; dose 0.025 kg/ha) | LAMPU rating (Lamium purpureum (LAMPU) [21]; dose 0.03 kg/ha) | LAMPU rating (Lamium purpureum (LAMPU) [21]; dose 0.1 kg/ha)
4 (4 - Injury): GLXMA rating (Glycine max (GLXMA) [3]; dose 0.4 kg/ha) | STEME rating (Stellaria media (STEME) [13]; dose 0.025 kg/ha)
6 (6 - Herbicidal effect): ECHCG rating ([7]; dose 0.1 kg/ha)
5 (5 - Definite injury): AMBEL rating ([2]; dose 0.03 kg/ha) | STEME rating (Stellaria media (STEME) [4]; dose 0.1 kg/ha) | AMBEL rating ([6]; dose 0.013 kg/ha) | GLXMA rating (Glycine max (GLXMA) [15]; dose 0.03 kg/ha) | SOLNI rating (Solanum nigrum (SOLNI); dose 0.1 kg/ha) | GALAP rating (Galium aparine (GALAP); dose 0.03 kg/ha) | ABUTH rating ([19]; dose 0.1 kg/ha)
3 (3 - Moderate effect): TRZAW rating ([1]; dose 0.4 kg/ha) | STEME rating (Stellaria media (STEME) [4]; dose 0.03 kg/ha) | TRZAW rating ([11]; dose 0.4 kg/ha) | SOLNI rating (Solanum nigrum (SOLNI); dose 0.03 kg/ha) | HORVW rating (Hordeum vulgare (HORVW); dose 0.1 kg/ha) | HORVW rating (Hordeum vulgare (HORVW); dose 0.4 kg/ha) | SETVI rating (Setaria viridis (SETVI); dose 0.025 kg/ha)
1 (1 - Trace effect): GLXMA rating (Glycine max (GLXMA) [3]; dose 0.025 kg/ha) | ECHCG rating ([7]; dose 0.013 kg/ha) | ECHCG rating ([7]; dose 0.025 kg/ha) | ALOMY rating ([9]; dose 0.013 kg/ha) | ALOMY rating ([9]; dose 0.025 kg/ha) | ORYSA rating (Oryza sativum (ORYSA) [10]; dose 0.1 kg/ha) | ORYSA rating (Oryza sativum (ORYSA) [10]; dose 0.4 kg/ha) | TRZAW rating ([11]; dose 0.1 kg/ha) | ABUTH rating ([12]; dose 0.025 kg/ha) | STEME rating (Stellaria media (STEME) [13]; dose 0.013 kg/ha) | ORYSA rating (Oryza sativum (ORYSA) [17]; dose 0.03 kg/ha) | ABUTH rating ([19]; dose 0.03 kg/ha) | ZEAMX rating (Zea mays (ZEAMX); dose 0.013 kg/ha) | ZEAMX rating (Zea mays (ZEAMX); dose 0.025 kg/ha) | ZEAMX rating (Zea mays (ZEAMX); dose 0.1 kg/ha) | SETVI rating (Setaria viridis (SETVI); dose 0.013 kg/ha)
2 (2 - Slight effect): TRZAW rating ([1]; dose 0.03 kg/ha) | TRZAW rating ([1]; dose 0.1 kg/ha) | GLXMA rating (Glycine max (GLXMA) [3]; dose 0.1 kg/ha) | IPOHE rating ([5]; dose 0.013 kg/ha) | IPOHE rating ([5]; dose 0.025 kg/ha) | ORYSA rating (Oryza sativum (ORYSA) [17]; dose 0.1 kg/ha) | ORYSA rating (Oryza sativum (ORYSA) [17]; dose 0.4 kg/ha) | ALOMY rating ([18]; dose 0.03 kg/ha) | HORVW rating (Hordeum vulgare (HORVW); dose 0.03 kg/ha) | ZEAMX rating (Zea mays (ZEAMX); dose 0.4 kg/ha)
9 (9 - Complete kill): IPOHE rating ([5]; dose 0.1 kg/ha) | IPOHE rating ([5]; dose 0.4 kg/ha) | MATIN rating ([8]; dose 0.03 kg/ha) | MATIN rating ([8]; dose 0.1 kg/ha) | MATIN rating ([8]; dose 0.4 kg/ha) | ABUTH rating ([12]; dose 0.4 kg/ha) | STEME rating (Stellaria media (STEME) [13]; dose 0.1 kg/ha) | STEME rating (Stellaria media (STEME) [13]; dose 0.4 kg/ha) | IPOHE rating ([14]; dose 0.1 kg/ha) | IPOHE rating ([14]; dose 0.4 kg/ha) | DIGSA rating ([16]; dose 0.1 kg/ha) | DIGSA rating ([16]; dose 0.4 kg/ha) | LAMPU rating (Lamium purpureum (LAMPU) [20]; dose 0.1 kg/ha) | LAMPU rating (Lamium purpureum (LAMPU) [20]; dose 0.4 kg/ha) | SETVI rating (Setaria viridis (SETVI); dose 0.1 kg/ha) | SETVI rating (Setaria viridis (SETVI); dose 0.4 kg/ha) | LAMPU rating (Lamium purpureum (LAMPU) [21]; dose 0.4 kg/ha)
